This note sets out measurements from patent publication US20180312493A1, “Antibiotic Compounds, Pharmaceutical Formulations Thereof And Methods And Uses Therefor” (Simon Fraser University, priority 2015, published 2018).

The test system of one assay is S. aureus (ATCC29213). Put plainly: In vitro susceptibility, broth microdilution (MIC). In kind it is cell-based. To be noted: Staphylococcus aureus; S. aureus ATCC29213; 18-24 h, 37 C; read-out: Antimicrobial activity (MIC) S. aureus ATCC29213. The method, boiled down:
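CLSI 2-fold serial broth microdilution; K. pneumoniae C238 grown in L-broth, S. aureus ATCC 29213 in Mueller Hinton broth, plates incubated 18–24 h at 37 °C. MIC taken as lowest concentration giving complete growth inhibition by OD600 versus compound-free wells, background-subtracted.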
A general note: Dilution methods test growth across graded concentrations, often in twofold steps.

For a further assay, the target named is T1, MRSA Pyk (Staphylococcus aureus, UniProt Q6GG09).
T1 construct: made in house; host or cells: E. coli BL-21 (DE3)
T1 sequence (Q6GG09 whole entry): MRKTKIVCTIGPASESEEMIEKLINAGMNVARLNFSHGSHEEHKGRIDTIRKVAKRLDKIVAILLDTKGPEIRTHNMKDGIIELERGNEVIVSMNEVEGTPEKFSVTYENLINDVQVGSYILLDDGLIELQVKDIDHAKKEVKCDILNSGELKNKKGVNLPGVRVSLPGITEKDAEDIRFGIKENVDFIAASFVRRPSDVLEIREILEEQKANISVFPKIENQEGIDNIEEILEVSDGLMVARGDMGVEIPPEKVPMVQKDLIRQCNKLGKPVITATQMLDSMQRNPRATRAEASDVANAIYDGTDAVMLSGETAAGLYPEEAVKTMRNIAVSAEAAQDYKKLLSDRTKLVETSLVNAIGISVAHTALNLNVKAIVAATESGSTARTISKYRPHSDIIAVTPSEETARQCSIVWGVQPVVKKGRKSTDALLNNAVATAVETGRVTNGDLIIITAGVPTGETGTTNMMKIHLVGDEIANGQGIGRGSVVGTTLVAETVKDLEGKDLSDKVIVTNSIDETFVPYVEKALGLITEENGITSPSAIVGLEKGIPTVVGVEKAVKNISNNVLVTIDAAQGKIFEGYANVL
Put plainly: MRSA pyruvate kinase (PK) activity, continuous LDH-coupled assay. In kind it is biochemical, methicillin resistant S. aureus (MRSA252). The text has this: Genomic DNA of MRSA strain Sanger 252 extracted using DNeasy Tissue Kit™ (Qiagen™) was used as a template to generate the His-tagged MRSA PK. Human cDNA from MCF-7 breast cancer cell line (courtesy of Dr. J Wong, BC Cancer Research Center (Vancouver, Canada)) was used as a template to generate the full-length human M2 PK enzyme. The following primer sets were used creating appropriate restriction sites (NdeI and XhoI sites underlined): For cloning of MRSA PK: M27F 5′-[…]-3′ and M27R 5′-[…]-3′, for cloning of human M2 PK isoform: hM2F 5′-[…]-3′ and hM2R 5′-[…]-3′. The resulting PCR fragments for each construct were cloned into the NdeI and XhoI unique sites of the bacterial expression vector pET-28a (+) (Novagen™). […] The sequence and the correct reading frame of all constructs were verified by sequencing. Human M1, R and L PK constructs in pET-28-a(+) vectors (courtesy of Dr. L. Cantley, Harvard Medical, School (Boston, USA)) were used to generate relevant recombinant His-tagged human PK isoforms.
MRSA and human constructs in pET-28a(+) were used to express relevant recombinant PK proteins in E. coli BL-21 (DE3). The proteins were expressed and purified using Ni-NTA agarose (Qiagen™) according to the manufacturer's protocol. Briefly, cells were grown to an absorbance of 0.4-0.5 at 600 nm in 2×YT medium, then induced with 0.1 mM IPTG for 3 h at 20° C. Cells were lysed by sonication on ice (3×10-s bursts with a 30-s recovery between bursts) in lysis buffer (0.2 mg/ml lysozyme, 50 mM Tris pH 7.5, 10 mM MgCl2, 200 mM NaCl, 100 mM KCl, 10% glycerol, 10 mM imidazole, 0.5% NP-40 and 1 mM DTT containing Complete™ protease inhibitor). Cell lysates were cleared by centrifugation (18,000×g in a Beckman™ JA-20 rotor) for 20 min at 4° C. and PK isoforms were purified by batch binding to Ni-NTA resin. The resins were then packed in columns (1×2 cm) and washed with 400 column volumes lysis buffer containing 30 mM imidazole. His-tagged PK isoforms were eluted with the same buffer containing 300 mM imidazole. The proteins were dialyzed overnight at 4° C. against 2000 volumes of ice-cold 30 mM Tris pH 7.5, 25 mM KCl, 5 mM MgCl2, 10% glycerol and 1 mM DTT to remove imidazole. All purification steps were done at 4° C.; enzymes were flash-frozen and stored at −70° C. Enzymatic activity of frozen protein preparations was stable for at least 10 months and up to 5 freeze/thaw cycles. Purity and physical integrity of proteins were assessed using SDS-polyacrylamide gel electrophoresis (SDS-PAGE) followed by coomassie blue staining. Protein concentration was estimated by Bradford assay (Bio-Rad Protein Assay™) using bovine serum albumin as a standard.
Candidate MRSA PK inhibitors were assayed for their ability to inhibit enzymatic activities of MRSA and human PKs. PK activity was determined using a continuous assay coupled to lactate dehydrogenase (LDH) in which the change in absorbance at 340 nm owing to oxidation of NADH was measured using a Benchmark Plus™ microplate spectrophotometer (Bio-Rad Laboratories, Hercules, Calif.). […] Reactions were initiated by the addition of 15 nM of one of the PK enzymes. PK activity proportional to the rate of change at 340 nm was expressed as specific activity (μmol/min/mg), which is defined as the amount of PK that catalyzes the formation of one micromole of either product per minute. Inhibitors were dissolved in DMSO with the final concentration of the solvent never exceeding 1% of the assay volume. IC50 values were calculated by curve fitting on a four-parameter dose-response model with variable slope using Graphpad Prism 5.0™ (GraphPad™ Software Inc., La Jolla, Calif.). In all studies, less than 10% of total PEP was exhausted during the reaction. Reactions were performed at 30° C. for up to 5 min. All values determined represent at least two measurements, in triplicate (Tables 1-6) or duplicate unless mentioned otherwise. […]

SMILES strings stand for the structures. In brackets after ≈: the same amount, converted by molar mass. A value given as a limit tells only on which side of the number the result lay.

Usually MIC stands for the lowest concentration that inhibits growth of the organism. The IC50 is the midpoint of a concentration-inhibition curve. With `CN(C)C(=O)c1c(CCc2ccc(Cl)cc2)[nH]c2ccccc12` [Compound 51, 2-(4-Chlorophenethyl)-N,N-dimethyl-1H-indole-3-carboxamide], the MIC in the assay with S. aureus (ATCC29213) is above 64 µg/mL. For the same molecule, the IC50 at MRSA Pyk is above 1000 nM.

On to `O=C(NCCN1CCNCC1)c1c(/C=C/c2ccc(Cl)cc2)[nH]c2cc(Br)ccc12` [Compound 52, (E)-6-Bromo-2-(4-chlorostyryl)-N-(2-(piperazin-1-yl)ethyl)-1H-indole-3-carboxamide], for which, in the assay on S. aureus (ATCC29213), the MIC was 16 µg/mL (≈ 32.8 µM). Further, the IC50 at MRSA Pyk is below 100 nM.

`O=C(NC1CCNCC1)c1c(/C=C/c2ccc(Cl)cc2)[nH]c2cc(Br)ccc12` [Compound 53, (E)-6-Bromo-2-(4-chlorostyryl)-N-(piperidin-4-yl)-1H-indole-3-carboxamide]: the MIC in the assay on S. aureus (ATCC29213) came to 8 µg/mL (≈ 17.4 µM). This molecule gave an IC50 at MRSA Pyk below 100 nM.

For the molecule `N[C@@H](CCCCNC(=O)c1c(/C=C/c2ccc(Cl)cc2)[nH]c2cc(Br)ccc12)C(=O)O` [Compound 54, (S,E)-2-Amino-6-(6-bromo-2-(4-chlorostyryl)-1H-indole-3-carboxamido)hexanoic Acid], the minimum inhibitory concentration (MIC) in the assay with S. aureus (ATCC29213) is above 64 µg/mL. Further, at MRSA Pyk, the IC50 is below 100 nM.

Take `O=C(NCCN1CCN(C(=O)CCC(=O)N2CCN(CCNC(=O)c3c(/C=C/c4ccc(Cl)cc4)[nH]c4cc(Br)ccc34)CC2)CC1)c1c(/C=C/c2ccc(Cl)cc2)[nH]c2cc(Br)ccc12` [Compound 55, (E)-N,N′-((4,4′-succinylbis(piperazine-4,1-diyl))bis(ethane-2,1-diyl))bis(6-bromo-2-((E)-4-chlorostyryl)-1H-indole-3-carboxamide)]: the MIC in the assay with S. aureus (ATCC29213) is above 64 µg/mL. This molecule showed an IC50 on MRSA Pyk above 1000 nM.

For the molecule `O=C(NCCN1CCN(C(=O)CO)CC1)c1c(/C=C/c2ccc(Cl)cc2)[nH]c2cc(Br)ccc12` [Compound 58, (E)-6-Bromo-2-(4-chlorostyryl)-N-(2-(4-(2-hydroxyacetyl)piperazin-1-yl)ethyl)-1H-indole-3-carboxamide], in the assay with S. aureus (ATCC29213), the MIC is above 64 µg/mL. Moreover, the IC50 against MRSA Pyk is below 100 nM.

As to `O=C(O)CCC(=O)N1CCN(CCNC(=O)c2c(/C=C/c3ccc(Cl)cc3)[nH]c3cc(Br)ccc23)CC1` [Compound 59, (E)-4-(4-(2-(6-Bromo-2-(4-chlorostyryl)-1H-indole-3-carboxamido)ethyl)piperazin-1-yl)-4-oxobutanoic Acid], the minimum inhibitory concentration (MIC) in the assay on S. aureus (ATCC29213) was above 64 µg/mL. In addition, on MRSA Pyk, the IC50 lay within 100 to 1000 nM.

Regarding `O=C(OCCN1CCOCC1)c1c(/C=C/c2ccc(Cl)cc2)[nH]c2cc(Br)ccc12` [Compound 62, 2-Morpholinoethyl (E)-6-bromo-2-(4-chlorostyryl)-1H-indole-3-carboxylate], the MIC in the assay on S. aureus (ATCC29213) is above 64 µg/mL. The same molecule displayed an IC50 at MRSA Pyk of 100 to 1000 nM.

In the case of `O=C(NCc1ccccc1)c1cc(Br)cc2[nH]c(/C=C/c3ccc(Cl)cc3)cc12` [Compound 63, (E)-N-Benzyl-6-bromo-2-(4-chlorostyryl)-1H-indole-4-carboxamide], the MIC in the assay on S. aureus (ATCC29213) is above 64 µg/mL. Besides, the IC50 at MRSA Pyk lay in the range of 100 to 1000 nM.

With `CN(C)C(=O)c1cc(Br)cc2[nH]c(/C=C/c3ccc(Cl)cc3)cc12` [Compound 64, (E)-6-Bromo-2-(4-chlorostyryl)-N,N-dimethyl-1H-indole-4-carboxamide], the MIC in the assay on S. aureus (ATCC29213) was above 64 µg/mL. Further, on MRSA Pyk, the IC50 is below 100 nM.

For the molecule `FC(F)(F)c1c(/C=C/c2ccc(Cl)cc2)[nH]c2cc(Br)ccc12` [Compound 65, (E)-6-Bromo-2-(4-chlorostyryl)-3-(trifluoromethyl)-1H-indole], the MIC with S. aureus (ATCC29213) was 1 µg/mL (≈ 2.5 µM). On MRSA Pyk, this molecule gave an IC50 below 100 nM.

On to `FC(F)(F)c1c(CCc2ccc(Cl)cc2)[nH]c2cc(Br)ccc12` [Compound 66, 6-Bromo-2-(4-chlorophenethyl)-3-(trifluoromethyl)-1H-indole], for which, in the assay on S. aureus (ATCC29213), the MIC was 2 µg/mL (≈ 4.97 µM). For the same molecule, the IC50 at MRSA Pyk lay within 100 to 1000 nM.

For the molecule `N#Cc1c(/C=C/c2ccc(Cl)cc2)[nH]c2cc(Br)ccc12` [Compound 67, (E)-6-Bromo-2-(4-chlorostyryl)-1H-indole-3-carbonitrile], the MIC with S. aureus (ATCC29213) was above 64 µg/mL. In addition, the IC50 against MRSA Pyk is above 1000 nM.

For `NC(=NO)c1c(/C=C/c2ccc(Cl)cc2)[nH]c2cc(Br)ccc12` [Compound 68, 6-Bromo-2-((E)-4-chlorostyryl)-N′-hydroxy-1H-indole-3-carboximidamide], in the assay on S. aureus (ATCC29213), the MIC turned out to be 8 µg/mL (≈ 20.5 µM). The IC50 at MRSA Pyk was below 100 nM.

In the case of `Clc1ccc(/C=C/c2[nH]c3cc(Br)ccc3c2-c2nn[nH]n2)cc1` [Compound 69, (E)-6-Bromo-2-(4-chlorostyryl)-3-(2H-tetrazol-5-yl)-1H-indole], the MIC with S. aureus (ATCC29213) was determined as 16 µg/mL (≈ 39.9 µM). In addition, the IC50 against MRSA Pyk is below 100 nM.

On to `NS(=O)(=O)c1c(CCc2ccc(Cl)cc2)[nH]c2cc(Br)ccc12` [Compound 70, 6-Bromo-2-(4-chlorophenethyl)-1H-indole-3-sulfonamide], for which the MIC in the assay on S. aureus (ATCC29213) is above 64 µg/mL. The molecule further had an IC50 against MRSA Pyk above 1000 nM.

For the molecule `O=C(c1c(-c2cc3ccccc3s2)[nH]c2cc(Br)ccc12)N1CCOCC1` [Compound 75], in the assay on S. aureus (ATCC29213), the minimum inhibitory concentration (MIC) is above 64 µg/mL. Also, at MRSA Pyk, the IC50 is above 1000 nM.

`O=C(c1c(-c2cc3ccccc3[nH]2)[nH]c2cc(Br)ccc12)N1CCOCC1` [Compound 76, (6-Bromo-1H,1′H-[2,2′-biindol]-3-yl)(morpholino)methanone]: in the assay on S. aureus (ATCC29213), the MIC is above 64 µg/mL. The molecule also had an IC50 at MRSA Pyk above 1000 nM.

For the molecule `CC(C)(C)OC(=O)N1CCN(CCNC(=O)c2c(C(=O)Nc3ccc(Cl)cc3)[nH]c3cc(Br)ccc23)CC1` [Compound 78, tert-Butyl 4-(2-(6-bromo-2-((4-chlorophenyl)carbamoyl)-1H-indole-3-carboxamido)ethyl)piperazine-1-carboxylate], in the assay on S. aureus (ATCC29213), the MIC is above 64 µg/mL. Moreover, the IC50 against MRSA Pyk was below 100 nM.

Turning to `CN1CCN(CCNC(=O)c2c(C(=O)Nc3ccc(Cl)cc3)[nH]c3cc(Br)ccc23)CC1` [Compound 79, 6-Bromo-N2-(4-chlorophenyl)-N3-(2-(4-methylpiperazin-1-yl)ethyl)-1 H-indole-2,3-dicarboxamide], the MIC with S. aureus (ATCC29213) is above 64 µg/mL. This molecule had an IC50 against MRSA Pyk below 100 nM.

As for `O=C(Nc1ccc(Cl)cc1)c1[nH]c2cc(Br)ccc2c1C(=O)NCCN1CCNCC1` [Compound 80, 6-Bromo-N2-(4-chlorophenyl)-N3-(2-(piperazin-1-yl)ethyl)-1H-indole-2,3-dicarboxamide], the MIC in the assay on S. aureus (ATCC29213) is above 64 µg/mL. This molecule also came in with a half-inhibitory concentration (IC50) at MRSA Pyk below 100 nM.

As for `CN(C)CCNC(=O)c1c(C(=O)Nc2ccc(Cl)cc2)[nH]c2cc(Br)ccc12` [Compound 81, 6-Bromo-N2-(4-chlorophenyl)-N3-(2-(dimethylamino)ethyl)-1H-indole-2,3-dicarboxamide], in the assay with S. aureus (ATCC29213), the minimal inhibitory concentration (MIC) is above 64 µg/mL. On MRSA Pyk, this molecule had an IC50 below 100 nM.

Take `CN(C)CCOC(=O)c1c(C(=O)Nc2ccc(Cl)cc2)[nH]c2cc(Br)ccc12` [Compound 82, 2-(Dimethylamino)ethyl 6-bromo-2-((4-chlorophenyl)carbamoyl)-1 H-indole-3-carboxylate]: the MIC in the assay with S. aureus (ATCC29213) was above 64 µg/mL. On MRSA Pyk, this molecule yielded an IC50 below 100 nM.

`O=C(O)C(=O)c1c(/C=C/c2ccc(Cl)cc2)[nH]c2cc(Br)ccc12` [Compound 85, (E)-2-(6-bromo-2-(4-chlorostyryl)-1H-indol-3-yl)-2-oxoacetic Acid]: the MIC in the assay with S. aureus (ATCC29213) is above 64 µg/mL. Moreover, the IC50 on MRSA Pyk lay in the range of 100 to 1000 nM.
